In patent US20240116926A1, “HETEROAROMATIC COMPOUNDS” (AstraZeneca AB, priority 2022, published 2024):
In brackets after ≈: the same amount, converted by molar mass.

Experiments:
MCF7-Tead cell line = assay: TEAD reporter assay; assay type: cell-based; details: MCF7-Tead cells, luciferase activity after 24 hours
Description: (§1) MCF7-Tead cell line was obtained from BPS BIOSCIENCE (catalog number 60618) and was maintained in DMEM containing 10% fetal calf serum, 2 mM glutamine, and 400 μg/ml G418. Cells were grown in a humidified incubator at 37° C. with 5% CO2. Cells were distributed to flat bottom white polystyrene TC treated 384 well plates at a density of 3,500 cells/well in 30 uL. Cells were incubated for 24 hours at 37° C. with 5% CO2. Cells were acoustically dosed using an Echo 555, with compounds serially diluted in 100% DMSO. Plates were incubated for an additional 24 hours. Cells were examined for luciferase activity through the addition of 30 μL Bright-Glo luciferase (Promega catalog number E2620). Plates were incubated for 10 minutes at room temperature and luminescence was read using Tecan plate reader. The data obtained with each compound was exported to […] software to perform curve fitting analysis.

[1] = Solubility (thermodynamic, shake-flask); assay type: physicochemical; details: thermodynamic from solid; aqueous phosphate buffer (pH 7.4), 24 hours at 25° C.
Description: The thermodynamic solubility of a research compound is measured under standard conditions. It is a shake-flask approach that uses 10 mM DMSO solutions which are supplied from the Compound Managements liquid store and is a high throughput method. The dried compounds are equilibrated in an aqueous phosphate buffer (pH 7.4) for 24 hours at 25° C., the portion with the dissolved compound is then separated from the remains. The solutions are analyzed and quantified using UPLC/MS/MS, QC-samples are incorporated in each assay-run to ensure the quality of the assay.

[2] = Protein binding measurements in human plasma (Hu PPB); assay type: in vitro ADME; details: equilibrium dialysis for 18 hours, fraction unbound
Description: The automated equilibrium dialysis assay in human plasma uses the RED (Rapid Equilibrium Dialysis) Device and sample handling. The assay generally runs over two to three days including delivery of results. After dialysis for 18 hours, plasma and buffer samples are prepared for analysis by liquid chromatography and mass spectrometry. Samples are generally tested in singlicates and quantified by LC/MSMS by using a 7-point calibration curve in plasma. The compounds are pooled together in plasma pools up to 10 compounds. Three reference compounds are used in each run, Propranolol, Metoprolol and Warfarin. Warfarin is used as a control in each pool and Propranolol and Metoprolol are placed randomly in each run. An in-house Excel macro is used for preparation of files for the robot and the mass spectrometer and is also used for the calculations of fraction unbound (fu %) in plasma.

[3] = tested on: MCF7-Luciferase cell line; assay: Control reporter (MCF7-Luciferase); assay type: cell-based; details: MCF7-Luciferase cells, luciferase activity after 24 hours
Description: (iii) Control Reporter (MCF7-Luciferase)
as §1, with “MCF7-Luciferase” for “MCF7-Tead”, “BPS BIOSCIENCE” left out, “SC050-L)” for “60618)”, “glutamine.” for “glutamine, and 400 μg/ml G418.”, “μL.” for “uL.”

TEAD4(217-434) = TEAD4(217-434) (Homo sapiens (Human), UniProt Q15561); assay: TEAD4 FRET; assay type: binding; details: depalmitoylated, biotinylated TEAD4(217-434), FAM labelled Probe A, 120 min at 25° C.
Sequence of TEAD4(217-434) (Q15561 217-434): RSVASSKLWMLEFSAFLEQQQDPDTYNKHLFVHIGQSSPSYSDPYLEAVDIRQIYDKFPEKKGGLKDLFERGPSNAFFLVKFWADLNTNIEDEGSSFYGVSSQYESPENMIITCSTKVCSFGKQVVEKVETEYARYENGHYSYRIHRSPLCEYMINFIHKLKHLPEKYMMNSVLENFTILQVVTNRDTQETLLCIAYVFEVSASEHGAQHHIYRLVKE
Description: Compounds were dosed with a final DMSO concentration of 1% (v/v). Compound IC50 values were assessed following a 10-point, half-log10 dilution schema starting at 100 μM compound concentration. Specifically, human TEAD protein from TEAD4(217-434) was cloned into an overexpression vector, expressed as an N-terminal HIS-TEV-Avi-tagged fusion protein in E coli, and subsequently purified, then protein was chemically depalmitoylated & biotinylated. The assay was performed in 384-well LV plates (384-well black, medium binding, PS, HIBASE, GREINER #784076) and run in the presence and absence of the compound of interest. Each well of 5 μL assay mixture contained 10 mM Tris-HCl (pH 7.5), 100 mM NaCl, 0.05 mM EDTA, 1 mM TECP, 1% DMSO, 0.03% Pluronic acid F127, 20 nM dePal Avi TEAD4 (217-434)-depalmitoylated & biotinylated protein, 0.8 nM Streptavidin Terbium cryptate (CisBio #610SATLB), 625 nM FAM labelled Probe A. Reactions were incubated at 25° C. for 120 min before reading on a PHERASTAR FSX Plate Reader (337 520 490 HTRF module required) (Supplier BMP).
The data file from the PHERAstar FSX contains both the acceptor (520 nm) and donor channels (490 nm) (“Channel A”=acceptor channel (520 nm), “Channel B”=donor channel (490 nm)). The ratio of the donor and acceptor (Channel A/Channel B) is calculated within Genedata Assay Analyzer.
Probe A is 3′,6′-dihydroxy-3-oxo-N-{8-[2-(5-{2-[4-(trifluoromethyl)anilino]phenyl}-2H-tetrazol-2-yl)acetamido]octyl}-3H-spiro[[2]benzofuran-1,9′-xanthene]-5-carboxamide;

| Compound | IC50 (MCF7-Tead cell line) | solubility at 24 h [1] | Hu PPB (% free) [2] | IC50 [3] | IC50 (TEAD4(217-434)) |
| --- | --- | --- | --- | --- | --- |
| C=CC(=O)N1CC[C@H](Nc2nnc(-c3ccc(C(F)(F)F)cn3)c3ccccc23)C1 [Example 18, (S)-1-(3-((4-(5-(trifluoromethyl)pyridin-2-yl)phthalazin-1-yl)amino)pyrrolidin-1-yl)prop-2-en-1-one] | 255 nM | 47 µM (≈ 19.4 µg/mL) | 10.0 % free | > 31.7 µM | 200 nM |
| C=CC(=O)N1C[C@H](CO)[C@@H](Nc2nnc(-c3ccc(C(F)(F)F)cc3)c3ccccc23)C1 [Example 22, 1-((3S,4R)-3-(hydroxymethyl)-4-((4-(4-(trifluoromethyl)phenyl)phthalazin-1-yl)amino)pyrrolidin-1-yl)prop-2-en-1-one] | 957 nM | 65 µM (≈ 28.8 µg/mL) | 5.4 % free | > 31.7 µM | 950 nM |
| C=CC(=O)N1C[C@@H](CO)[C@H](Nc2nnc(-c3ccc(C(F)(F)F)cc3)c3ccccc23)C1 [Example 23, 1-((3R,4S)-3-(hydroxymethyl)-4-((4-(4-(trifluoromethyl)phenyl)phthalazin-1-yl)amino)pyrrolidin-1-yl)prop-2-en-1-one] | 14 nM | 48 µM (≈ 21.2 µg/mL) | 4.7 % free | > 31.7 µM | 42 nM |
| C=CC(=O)N1C[C@@H](CO)[C@H](Nc2ncc(-c3ccc(C(F)(F)F)cc3)c3ncccc23)C1 [Example 24, 1-((3R,4S)-3-(hydroxymethyl)-4-((8-(4-(trifluoromethyl)phenyl)-1,6-naphthyridin-5-yl)amino)pyrrolidin-1-yl)prop-2-en-1-one] | 16 nM | 32 µM (≈ 14.2 µg/mL) | 1.9 % free | > 31.7 µM | 23 nM |
| C=CC(=O)N1C[C@@H](CO)[C@H](Nc2nnc(-c3ccc(C(F)(F)F)cc3)c3ncccc23)C1 [Example 25, 1-((3R,4S)-3-(hydroxymethyl)-4-((8-(4-(trifluoromethyl)phenyl)pyrido[2,3-d]pyridazin-5-yl)amino)pyrrolidin-1-yl)prop-2-en-1-one] | 25 nM | 32 µM (≈ 14.2 µg/mL) | 12.0 % free | > 31.7 µM | 57 nM |
| C=CC(=O)N1C[C@@H](CO)[C@H](Nc2nnc(-c3ccc(C(F)(F)F)cc3)c3cccnc23)C1 [Example 26, 1-((3R,4S)-3-(hydroxymethyl)-4-((5-(4-(trifluoromethyl)phenyl)pyrido[2,3-d]pyridazin-8-yl)amino)pyrrolidin-1-yl)prop-2-en-1-one] | 42 nM | 175 µM (≈ 77.6 µg/mL) | 26.0 % free | > 31.7 µM | 76 nM |
| C=CC(=O)N1C[C@@H](CO)[C@H](Nc2ncc(-c3ccc(C(F)(F)F)cc3)c3nccnc23)C1 [Example 27, 1-((3R,4S)-3-(hydroxymethyl)-4-((8-(4-(trifluoromethyl)phenyl)pyrido[3,4-b]pyrazin-5-yl)amino)pyrrolidin-1-yl)prop-2-en-1-one] | 23 nM | 63 µM (≈ 27.9 µg/mL) | 6.0 % free | > 31.7 µM | 29 nM |
| C=CC(=O)N1C[C@@H](COC)[C@H](Nc2nnc(-c3ccc(C(F)(F)F)cc3)c3ccccc23)C1 [Example 28, 1-((3R,4S)-3-(methoxymethyl)-4-((4-(4-(trifluoromethyl)phenyl)phthalazin-1-yl)amino)pyrrolidin-1-yl)prop-2-en-1-one] | 71 nM | 168 µM (≈ 76.7 µg/mL) | 3.9 % free | > 31.7 µM | 61 nM |
| C=CC(=O)N1C[C@H](O)[C@H](Nc2nnc(-c3ccc(C(F)(F)F)cc3)c3ncccc23)C1 [Example 32, 1-((3S,4R)-3-hydroxy-4-((8-(4-(trifluoromethyl)phenyl)pyrido[2,3-d]pyridazin-5-yl)amino)pyrrolidin-1-yl)prop-2-en-1-one] | 65 nM | 52 µM (≈ 22.3 µg/mL) | 16.0 % free | > 31.7 µM | 42 nM |
| C=CC(=O)N1C[C@H](O)[C@H](Nc2nnc(-c3ccc(C(F)(F)F)cc3)c3cccnc23)C1 [Example 33, 1-((3S,4R)-3-hydroxy-4-((5-(4-(trifluoromethyl)phenyl)pyrido[2,3-d]pyridazin-8-yl)amino)pyrrolidin-1-yl)prop-2-en-1-one] | 107 nM | 365 µM (≈ 157 µg/mL) | 17.0 % free | > 31.7 µM | 68 nM |
| C=CC(=O)N1C[C@@H](CO)[C@H](Nc2ncc(-c3ccc(C(F)(F)F)cn3)c3ncccc23)C1 [Example 37, 1-((3R,4S)-3-(hydroxymethyl)-4-((8-(5-(trifluoromethyl)pyridin-2-yl)-1,6-naphthyridin-5-yl)amino)pyrrolidin-1-yl)prop-2-en-1-one] | 33 nM | 155 µM (≈ 68.7 µg/mL) | 17.0 % free | > 31.7 µM | 180 nM |
| C=CC(=O)N1CC[C@H](Nc2ncc(-c3ccc(C(F)(F)F)cc3)c3ncccc23)C1 [Example 39, (S)-1-(3-((8-(4-(trifluoromethyl)phenyl)-1,6-naphthyridin-5-yl)amino)pyrrolidin-1-yl)prop-2-en-1-one] | 5 nM | 20 µM (≈ 8.25 µg/mL) | 1.4 % free | > 31.7 µM | 13 nM |
| C=CC(=O)NC1(CNc2nnc(-c3ccc(C(F)(F)F)cc3)c3ccccc23)CCC1 [Example 41, N-(1-(((4-(4-(trifluoromethyl)phenyl)phthalazin-1-yl)amino)methyl)cyclobutyl)acrylamide] | 152 nM | 72 µM (≈ 30.7 µg/mL) | 0.9 % free | 21.5 µM | 72 nM |
| C=CC(=O)NCC1(Nc2nnc(-c3ccc(C(F)(F)F)cc3)c3ccccc23)CCC1 [Example 42, N-((1-((4-(4-(trifluoromethyl)phenyl)phthalazin-1-yl)amino)cyclobutyl)methyl)acrylamide] | 672 nM | 19 µM (≈ 8.1 µg/mL) | 0.8 % free | 19.6 µM | 70 nM |
| C=CC(=O)N1CC[C@H](Nc2ncc(-c3ccc(C(F)(F)F)cc3)c3nccnc23)C1 [Example 45, (S)-1-(3-((8-(4-(trifluoromethyl)phenyl)pyrido[3,4-b]pyrazin-5-yl)amino)pyrrolidin-1-yl)prop-2-en-1-one] | 11 nM | 13.6 µM (≈ 5.62 µg/mL) | 3.9 % free | 19 µM | 12 nM |
